We go through 10 molecules from PubChem BioAssay (NCI).

Several values for one entry are separate records, joined by “and”; a condition that tells them apart may be missing. Equal entries are not always repeated.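 Exposure lasted 48 hours, with cells grown in 96-well plates and compounds tested at five concentrations. GI50 marks 50% less growth. TGI: total growth inhibition.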

Test systems include CAKI-1 renal; EKVX NSCLC; HL-60(TB) leukemia; MDA-MB-435; NCI-H460 lung; NCI/ADR-RES ovarian; OVCAR-5 ovarian; OVCAR-8 ovarian; SF-268 CNS; SK-MEL-28 melanoma.
Test in all cases: NCI anticancer screen, dose series, 48 h

On to `Cc1cc(C)c(-c2c(O)c(Br)c(-c3c(C)cc(C)c(Br)c3C)c(O)c2Br)c(C)c1Br`, for which the GI50 in the test with CAKI-1 renal was 1.66 µM; with EKVX NSCLC it was 1.62 µM; in the test on HL-60(TB) leukemia it was 1.68 µM; in the test on MDA-MB-435 it was 2.35 µM; in the test with NCI-H460 lung, 2.16 µM; with NCI/ADR-RES ovarian, 2.88 µM. The GI50 in the test on OVCAR-5 ovarian was 2.85 µM; in the test with OVCAR-8 ovarian it was 3.08 µM; in the test with SF-268 CNS, 3.7 µM; in the test with SK-MEL-28 melanoma, 2.66 µM. For the same molecule, the TGI stood at 5.99 µM with CAKI-1 renal; 8.86 µM with EKVX NSCLC; 9.67 µM in the test on HL-60(TB) leukemia; 8.55 µM in the test with MDA-MB-435; 6.5 µM in the test with NCI-H460 lung; 10.7 µM with NCI/ADR-RES ovarian. Further, the TGI in the test on OVCAR-5 ovarian was 9.63 µM; in the test with OVCAR-8 ovarian it was 10.4 µM; in the test on SF-268 CNS, 16.4 µM; in the test on SK-MEL-28 melanoma, 12.8 µM.
Consider `CN(C)CCN=c1nc2c(c(N)n1-c1ccccc1)c(=S)n(-c1ccccc1)c(=S)n2-c1ccccc1`, for which the GI50 in the test on CAKI-1 renal was 2.16 µM; in the test with EKVX NSCLC, 11 µM; with HL-60(TB) leukemia, 1.52 µM; with MDA-MB-435, 1.75 µM; in the test with NCI-H460 lung it was 2.33 µM; with NCI/ADR-RES ovarian, 10.4 µM. In addition, the GI50 was 9.95 µM in the test with OVCAR-5 ovarian, 4.76 µM with OVCAR-8 ovarian, 3.34 µM with SF-268 CNS and 0.867 µM in the test on SK-MEL-28 melanoma. Also, the TGI with CAKI-1 renal is 14.1 µM; in the test on EKVX NSCLC, 27.2 µM; with HL-60(TB) leukemia, 3.3 µM; with MDA-MB-435, 3.9 µM; with NCI-H460 lung it was 6.29 µM; in the test on NCI/ADR-RES ovarian it was 26.7 µM. For the same molecule, the TGI in the test on OVCAR-5 ovarian stood at 25.5 µM; in the test with OVCAR-8 ovarian, 17.6 µM; in the test with SF-268 CNS, 15.1 µM; in the test on SK-MEL-28 melanoma, 2.33 µM.
For the molecule `Cc1c(-c2ccc(-c3ccccc3F)cc2)nc2ccc(F)cc2c1C(=O)O`, the GI50 is 3.34 µM with CAKI-1 renal; 77 µM and 53.3 µM with EKVX NSCLC; 1.28 µM and 0.371 µM and 2.48 µM in the test with MDA-MB-435; 0.349 µM and 0.5 µM with NCI-H460 lung; 8.96 µM and 17.2 µM with NCI/ADR-RES ovarian; 0.257 µM and 0.711 µM in the test with OVCAR-8 ovarian. In addition, the GI50 in the test on SK-MEL-28 melanoma is 22.4 µM and 67.8 µM. The TGI with CAKI-1 renal was 105 µM and 109 µM; in the test with EKVX NSCLC, 173 µM and 448 µM; in the test on HL-60(TB) leukemia it was 36.4 µM and 148 µM and 302 µM; in the test with MDA-MB-435, 101 µM and 128 µM; in the test on NCI-H460 lung, 80.9 µM and 174 µM; in the test on NCI/ADR-RES ovarian, 170 µM and 377 µM. Also, the TGI in the test with OVCAR-5 ovarian is 209 µM and 371 µM; in the test with OVCAR-8 ovarian, 161 µM and 244 µM; in the test with SF-268 CNS, 173 µM and 866 µM; in the test with SK-MEL-28 melanoma, 158 µM and 400 µM.
With `CC(C)(O)c1cc(Nc2cc(Oc3cn(C4CC4)nc3C3CCOCC3)ccn2)ccn1`, the GI50 in the test with CAKI-1 renal was above 100 µM; in the test on EKVX NSCLC it was above 100 µM; in the test on HL-60(TB) leukemia, 27.6 µM; in the test on MDA-MB-435, above 100 µM; with NCI-H460 lung, above 100 µM; in the test with NCI/ADR-RES ovarian, above 100 µM. Further, the GI50 in the test on OVCAR-5 ovarian, in the test with OVCAR-8 ovarian, in the test with SF-268 CNS and in the test with SK-MEL-28 melanoma was above 100 µM each time. Also, the TGI in the test on CAKI-1 renal, in the test on EKVX NSCLC, with HL-60(TB) leukemia, in the test on MDA-MB-435, in the test with NCI-H460 lung and in the test on NCI/ADR-RES ovarian was above 100 µM each time. The TGI in the test with OVCAR-5 ovarian, with OVCAR-8 ovarian, in the test with SF-268 CNS and with SK-MEL-28 melanoma was above 100 µM in each case.
Consider `S=C(Nc1ccc(-c2nc3ccccc3s2)cc1)Nc1ccc(-c2nc3ccccc3s2)cc1`, for which the GI50 was 13.5 µM in the test with CAKI-1 renal; 8.79 µM with EKVX NSCLC; 35.7 µM with HL-60(TB) leukemia; 24.8 µM in the test with MDA-MB-435; 21 µM in the test with NCI-H460 lung; 22.5 µM with NCI/ADR-RES ovarian. Besides, the GI50 in the test on OVCAR-5 ovarian was 20.1 µM; in the test with OVCAR-8 ovarian, 19.9 µM; in the test on SF-268 CNS, 23.6 µM; with SK-MEL-28 melanoma it was 22.3 µM. The TGI with CAKI-1 renal is 48.1 µM; in the test on EKVX NSCLC, 30.2 µM; in the test with HL-60(TB) leukemia, above 100 µM; with MDA-MB-435, 73 µM; in the test on NCI-H460 lung, 63.9 µM; with NCI/ADR-RES ovarian, 52 µM. Also, the TGI was 48.8 µM with OVCAR-5 ovarian, 49.4 µM in the test with OVCAR-8 ovarian, 94.8 µM in the test on SF-268 CNS and 54.8 µM in the test with SK-MEL-28 melanoma.
Turning to `CCOC(=O)C(Cc1cc(OC)c(CC(C(=O)OCC)C(=O)OCC)cc1OC)C(=O)OCC`, the TGI with CAKI-1 renal, in the test on EKVX NSCLC, in the test on HL-60(TB) leukemia, in the test with MDA-MB-435, in the test on NCI-H460 lung and in the test on NCI/ADR-RES ovarian was above 100 µM each time. The TGI in the test with OVCAR-5 ovarian, in the test on OVCAR-8 ovarian, in the test on SF-268 CNS and in the test on SK-MEL-28 melanoma was above 100 µM throughout.
As for `O=C(OCC1=CC(=O)c2ccccc2C1=O)c1ccccc1`, the GI50 in the test with CAKI-1 renal was 10.4 µM; in the test with EKVX NSCLC, 12.9 µM; with HL-60(TB) leukemia it was 3.72 µM; in the test with MDA-MB-435 it was 1.98 µM; in the test on NCI-H460 lung, 1.99 µM; with NCI/ADR-RES ovarian, 21.7 µM. Also, the GI50 in the test with OVCAR-5 ovarian was 24.1 µM; with OVCAR-8 ovarian it was 14.4 µM; in the test on SF-268 CNS, 14.1 µM; in the test with SK-MEL-28 melanoma it was 13 µM. Besides, the TGI worked out at 22.8 µM in the test with CAKI-1 renal; 27.5 µM with EKVX NSCLC; 14.1 µM in the test with HL-60(TB) leukemia; 3.66 µM with MDA-MB-435; 6.19 µM with NCI-H460 lung; 60.1 µM in the test on NCI/ADR-RES ovarian. The TGI is 41.1 µM with OVCAR-5 ovarian, 29.1 µM with OVCAR-8 ovarian, 29.6 µM in the test on SF-268 CNS and 28 µM with SK-MEL-28 melanoma.
For the molecule `CC(C)(C)OC(=O)NCCCCCCCCCCCCn1c2c(c3ccccc3c1=O)C(=O)c1ccccc1-2`, the GI50 in the test on CAKI-1 renal was 22 µM; in the test with EKVX NSCLC, 85.7 µM; in the test with HL-60(TB) leukemia, above 100 µM; with MDA-MB-435 it was above 100 µM; in the test with NCI-H460 lung, above 100 µM; in the test on NCI/ADR-RES ovarian, 51.2 µM. The GI50 in the test with OVCAR-5 ovarian was 75.9 µM; in the test on OVCAR-8 ovarian, 49.8 µM; with SF-268 CNS, 26.8 µM; in the test on SK-MEL-28 melanoma, above 100 µM. Further, the TGI is 57.9 µM with CAKI-1 renal; above 100 µM in the test with EKVX NSCLC; above 100 µM with HL-60(TB) leukemia; above 100 µM with MDA-MB-435; above 100 µM with NCI-H460 lung; above 100 µM with NCI/ADR-RES ovarian. For the same molecule, the TGI in the test on OVCAR-5 ovarian, in the test with OVCAR-8 ovarian, in the test with SF-268 CNS and in the test with SK-MEL-28 melanoma was above 100 µM in each case.
With `CCOC(=O)c1sc(NC(=O)COc2ccc(/C=C3\CCc4cc(OC)ccc4C3=O)cc2)nc1C`, the GI50 was 11.1 µM in the test on CAKI-1 renal; 18.5 µM in the test with EKVX NSCLC; 0.294 µM in the test on HL-60(TB) leukemia; 4.05 µM with MDA-MB-435; 14.3 µM with NCI-H460 lung; 8.49 µM in the test with NCI/ADR-RES ovarian. Also, the GI50 is 8.97 µM in the test on OVCAR-5 ovarian, 9.5 µM with OVCAR-8 ovarian, 11.4 µM with SF-268 CNS and 14.6 µM in the test on SK-MEL-28 melanoma. Besides, the TGI amounted to 31.6 µM in the test with CAKI-1 renal; 53.3 µM with EKVX NSCLC; 0.949 µM in the test with HL-60(TB) leukemia; 18.3 µM in the test on MDA-MB-435; 28.7 µM in the test on NCI-H460 lung; 37.5 µM in the test with NCI/ADR-RES ovarian. Also, the TGI with OVCAR-5 ovarian amounted to 24.6 µM; in the test on OVCAR-8 ovarian it was 34.7 µM; in the test with SF-268 CNS, 26.5 µM; in the test with SK-MEL-28 melanoma it was 27.7 µM.
`CCOC1=C/C(=N\Nc2ccc([N+](=O)[O-])cc2)CCC1`: the TGI in the test with CAKI-1 renal, in the test with EKVX NSCLC, with HL-60(TB) leukemia, with MDA-MB-435, in the test on NCI-H460 lung and in the test with NCI/ADR-RES ovarian was above 100 µM throughout. Also, the TGI is above 100 µM in the test on OVCAR-5 ovarian, above 100 µM with OVCAR-8 ovarian, 44.9 µM with SF-268 CNS and 72.6 µM in the test with SK-MEL-28 melanoma.
